Measurements taken from publication PMC6073568, “Efficient Lead Finding, Activity Enhancement and Preliminary Selectivity Control of Nuclear Receptor Ligands Bearing a Phenanthridinone Skeleton” (International Journal of Molecular Sciences, 2018).

Legend:
LXRα = molecular target: T1, LXRα (Homo sapiens, UniProt Q13133); details: read-out: LXRα antagonistic activity (IC50); cited from earlier work
T1 construct: CMX-GAL4N-hLXRα-LBD; expressed in transfected cells; host or cells: HEK293
T1 sequence (Q13133 209-447 limits assumed): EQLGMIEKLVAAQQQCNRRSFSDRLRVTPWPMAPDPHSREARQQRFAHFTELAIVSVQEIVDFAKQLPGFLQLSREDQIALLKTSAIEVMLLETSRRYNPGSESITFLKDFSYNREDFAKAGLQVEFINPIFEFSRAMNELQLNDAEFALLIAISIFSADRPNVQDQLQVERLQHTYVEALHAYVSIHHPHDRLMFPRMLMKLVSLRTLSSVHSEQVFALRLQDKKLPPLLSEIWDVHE

RORγ = molecular target: T2, RORγ (Homo sapiens, UniProt P51449); experiment: RORγ inverse agonist reporter gene assay in HEK293; format: cell-based; details: new compound 43, read-out: RORγ inverse agonistic activity (IC50)
T2 construct: expressed in transfected cells; host or cells: HEK293
T2 sequence (P51449 1-518): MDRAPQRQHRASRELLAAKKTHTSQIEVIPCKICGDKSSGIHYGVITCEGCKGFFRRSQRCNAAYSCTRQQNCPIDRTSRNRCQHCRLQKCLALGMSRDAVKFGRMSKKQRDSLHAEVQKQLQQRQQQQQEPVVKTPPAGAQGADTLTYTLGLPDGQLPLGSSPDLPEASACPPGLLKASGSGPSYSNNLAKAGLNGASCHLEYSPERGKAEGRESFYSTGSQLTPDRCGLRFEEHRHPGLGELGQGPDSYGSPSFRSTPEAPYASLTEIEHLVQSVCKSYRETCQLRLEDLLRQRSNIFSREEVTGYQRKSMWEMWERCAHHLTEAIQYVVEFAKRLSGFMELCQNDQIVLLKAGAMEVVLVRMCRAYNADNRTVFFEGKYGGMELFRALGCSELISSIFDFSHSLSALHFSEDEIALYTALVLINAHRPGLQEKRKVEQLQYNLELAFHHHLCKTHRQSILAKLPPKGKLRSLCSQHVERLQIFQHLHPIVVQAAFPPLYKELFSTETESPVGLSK

RORα = molecular target: T3, RORα (Homo sapiens, UniProt P35398); experiment: RORα inverse agonist reporter gene assay in HEK293; format: cell-based; details: new compound 43, read-out: RORα inverse agonistic activity (IC50)
T3 construct: expressed in transfected cells; host or cells: HEK293
T3 sequence (P35398 1-523): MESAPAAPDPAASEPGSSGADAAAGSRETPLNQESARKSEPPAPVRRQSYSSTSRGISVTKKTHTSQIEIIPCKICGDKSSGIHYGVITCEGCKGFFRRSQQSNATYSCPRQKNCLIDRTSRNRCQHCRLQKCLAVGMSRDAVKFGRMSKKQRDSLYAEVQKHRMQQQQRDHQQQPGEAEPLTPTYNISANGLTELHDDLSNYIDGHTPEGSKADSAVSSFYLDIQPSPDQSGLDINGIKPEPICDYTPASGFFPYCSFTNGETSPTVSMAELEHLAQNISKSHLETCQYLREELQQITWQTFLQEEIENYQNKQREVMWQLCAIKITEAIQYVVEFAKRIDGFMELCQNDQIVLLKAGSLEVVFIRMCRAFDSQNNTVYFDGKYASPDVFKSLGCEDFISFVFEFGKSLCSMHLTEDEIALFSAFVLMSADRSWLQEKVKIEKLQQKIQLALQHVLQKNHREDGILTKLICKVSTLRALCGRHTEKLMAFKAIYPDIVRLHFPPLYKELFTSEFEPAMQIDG

RORβ = molecular target: T4, RORβ (Homo sapiens, UniProt Q92753); experiment: RORβ inverse agonist reporter gene assay in HEK293; format: cell-based; details: new compound 43, read-out: RORβ inverse agonistic activity (IC50)
T4 construct: expressed in transfected cells; host or cells: HEK293
T4 sequence (Q92753 1-459 isoform Q92753-1): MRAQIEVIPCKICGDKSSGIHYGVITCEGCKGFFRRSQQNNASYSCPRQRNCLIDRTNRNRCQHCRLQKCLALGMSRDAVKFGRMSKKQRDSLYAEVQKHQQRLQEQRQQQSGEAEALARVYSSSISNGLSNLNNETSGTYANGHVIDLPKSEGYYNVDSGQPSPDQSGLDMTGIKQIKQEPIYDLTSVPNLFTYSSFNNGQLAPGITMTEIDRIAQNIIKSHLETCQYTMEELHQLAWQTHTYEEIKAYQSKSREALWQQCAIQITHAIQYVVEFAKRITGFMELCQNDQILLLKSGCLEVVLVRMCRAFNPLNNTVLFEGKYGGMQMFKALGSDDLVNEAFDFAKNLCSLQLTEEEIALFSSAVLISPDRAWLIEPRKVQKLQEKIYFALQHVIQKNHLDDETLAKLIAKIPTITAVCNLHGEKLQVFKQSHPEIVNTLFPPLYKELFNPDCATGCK

IC50 (RORγ) [µM] | IC50 (RORα) [µM] | IC50 (RORβ) [µM] | Compound | IC50 (LXRα) [µM]
 |  |  | O=c1[nH]c2ccc(C(O)(C(F)(F)F)C(F)(F)F)cc2c2ccccc12 [Compound 1] | 5
> 20 | > 20 | > 20 | O=c1[nH]c2c(Cl)cc(C(O)(C(F)(F)F)C(F)(F)F)cc2c2ccccc12 [Compound 43, 4-Chloro-2-(1,1,1,3,3,3-hexafluoro-2-hydroxypropan-2-yl)phenanthridin-6(5H)-one] | 
